The record followed here is patent US12331041B2, “GLP-1 receptor agonists and uses thereof” (Pfizer Inc., priority 2018, dated 2025).

The structures appear in SMILES notation. Where a name gives a salt, the structure may show the parent alone.

Experiment [1] concerns the target T1, human GLP-1R (Homo sapiens, UniProt P43220, G168S).
T1 construct: expressed in transfected cells
The experiment is described as follows: CHO GLP-1R Clone H6 - Assay 1 (HTRF cAMP agonist assay). The experiment is classed as cell-based. Conditions: for EC50: CHO Clone H6, high GLP-1R density, cAMP, geometric mean; for Emax: CHO Clone H6, relative to saturating full agonist GLP-1 7-36 (1 μM), arithmetic mean. In short, it runs like this: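 CHO Clone H6 cells stably expressing human GLP-1R (G168S) were plated 48 h, then given compound for 30 min at 37° C in HBSS/0.1% BSA/HEPES with 100 μM IBMX and 1% DMSO. cAMP was measured by HTRF against a standard curve.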
(In general: TR-FRET usually uses a lanthanide donor and a delayed reading to cut background.)

Experiment [2] addresses T2, human GLP-1R (Homo sapiens, UniProt P43220, L260F).
T2 construct: expressed in transfected cells; host or cells: CHO Flp-In T-REx, clonal line C6 (pcDNA5-FRT-TO)
The experiment is described as follows: CHO GLP-1R Clone C6 - Assay 2 (HTRF cAMP agonist assay). The experiment is classed as cell-based. Conditions: for EC50: CHO clone C6, low GLP-1R density, cAMP, geometric mean; for Emax: CHO clone C6, relative to saturating full agonist GLP-1 (1 μM), arithmetic mean.

T2 sequence (P43220 24-463 L260F): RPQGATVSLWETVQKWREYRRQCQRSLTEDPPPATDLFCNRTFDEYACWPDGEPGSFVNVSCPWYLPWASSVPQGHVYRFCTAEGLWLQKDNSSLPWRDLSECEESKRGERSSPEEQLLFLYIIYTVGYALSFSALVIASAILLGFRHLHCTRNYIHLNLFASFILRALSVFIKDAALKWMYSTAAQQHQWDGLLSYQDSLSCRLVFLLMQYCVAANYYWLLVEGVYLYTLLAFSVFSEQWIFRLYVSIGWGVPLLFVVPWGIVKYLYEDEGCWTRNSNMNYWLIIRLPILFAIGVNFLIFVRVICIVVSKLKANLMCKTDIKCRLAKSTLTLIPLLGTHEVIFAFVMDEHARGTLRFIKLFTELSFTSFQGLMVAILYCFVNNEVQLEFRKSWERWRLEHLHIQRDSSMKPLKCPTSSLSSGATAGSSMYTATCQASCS
T1 sequence (P43220 24-463 G168S): as the sequence (P43220 24-463 L260F) above, with G145S, F237L counted along it

Turning to `N#Cc1ccc(COc2ncccc2C2CCN(Cc3nc4ccc(C(=O)O)cc4n3C[C@@H]3CCCO3)CC2)c(F)c1` [Example 13, 2-[(4-{2-[(4-cyano-2-fluorobenzyl)oxy]pyridin-3-yl}piperidin-1-yl)methyl]-1-[(2S)-tetrahydrofuran-2-ylmethyl]-1H-benzimidazole-6-carboxylic acid, trifluoroacetate salt], on human GLP-1R [1], the EC50 worked out at 6 nM and the Emax amounted to 80%. For the same molecule, at human GLP-1R [2], the midpoint of the response, the EC50, lay at 270 nM and the Emax turned out to be 91%.
Taken in the same sequence, the figures for `O=C(O)c1ccc2nc(CN3CCC(c4cccnc4OCc4ccc(Cl)cc4F)CC3)n(CCN3CCOC3=O)c2c1` [Example 14, 2-[(4-{2-[(4-chloro-2-fluorobenzyl)oxy]pyridin-3-yl}piperidin-1-yl)methyl]-1-[2-(2-oxo-1,3-oxazolidin-3-yl)ethyl]-1H-benzimidazole-6-carboxylic acid, trifluoroacetate salt] were 14 nM, 77%, 540 nM and 120%.
The like results for `CCn1cncc1Cn1c(CN2CCC(c3cccnc3OCc3ccc(Cl)cc3F)CC2)nc2ccc(C(=O)O)nc21` [Example 15, 2-[(4-{2-[(4-chloro-2-fluorobenzyl)oxy]pyridin-3-yl}piperidin-1-yl)methyl]-3-[(1-ethyl-1H-imidazol-5-yl)methyl]-3H-imidazo[4,5-b]pyridine-5-carboxylic acid, trifluoroacetate salt] were, in that order, 0.96 nM, 81%, 21 nM and 91%.
With `CCn1cncc1Cn1c(CN2CCC(c3cccnc3OCc3ccc(C#N)cc3F)CC2)nc2ccc(C(=O)O)cc21` [Example 16, 2-[(4-{2-[(4-cyano-2-fluorobenzyl)oxy]pyridin-3-yl}piperidin-1-yl)methyl]-1-[(1-ethyl-1H-imidazol-5-yl)methyl]-1H-benzimidazole-6-carboxylic acid, trifluoroacetate salt], at human GLP-1R [1], the half-maximal effective concentration (EC50) is 0.99 nM and the Emax came to 87%. At human GLP-1R [2], the EC50 amounted to 18 nM and the Emax was determined as 130%.
The like results for `CCn1nncc1Cn1c(CN2CCC(c3cccnc3OCc3ccc(C#N)cc3F)CC2)nc2ccc(C(=O)O)cc21` [Example 17, 2-[(4-{2-[(4-cyano-2-fluorobenzyl)oxy]pyridin-3-yl}piperidin-1-yl)methyl]-1-[(1-ethyl-1H-1,2,3-triazol-5-yl)methyl]-1H-benzimidazole-6-carboxylic acid, trifluoroacetate salt] were, in that order, 6 nM, 86%, 150 nM and 91%.
Taken in the same sequence, the figures for `O=C(O)c1ccc2nc(CN3CCC(c4nccnc4OCc4ccc(Cl)cc4F)CC3)n(C[C@@H]3CCO3)c2c1` [Example 19, Ammonium 2-[(4-{3-[(4-chloro-2-fluorobenzyl)oxy]pyrazin-2-yl}piperidin-1-yl)methyl]-1-[(2S)-oxetan-2-ylmethyl]-1H-benzimidazole-6-carboxylate] were 5.3 nM, 90%, 42 nM and 94%.
Taken in the same sequence, the figures for `CCn1cncc1Cn1c(CN2CCC(c3nccnc3OCc3ccc(Cl)cc3F)CC2)nc2ccc(C(=O)O)cc21` [Example 20, 2-[(4-{3-[(4-chloro-2-fluorobenzyl)oxy]pyrazin-2-yl}piperidin-1-yl)methyl]-1-[(1-ethyl-1H-imidazol-5-yl)methyl]-1H-benzimidazole-6-carboxylic acid, trifluoroacetate salt] were 0.34 nM, 80%, 6.1 nM and 91%.

As usually defined, the EC50 is the concentration that produces a half-maximal response. In general, Emax refers to the greatest response seen or fitted, relative to the assay's reference.
